The supplement of paper PMC10307832

Assays:
Assay in all cases: relative viability (nuclei count vs DMSO), 5 days (fraction); higher = more cells survive
Carfilzomib + Trametinib = compound: CC(C)C[C@H](NC(=O)[C@H](CCc1ccccc1)NC(=O)CN1CCOCC1)C(=O)N[C@@H](Cc1ccccc1)C(=O)N[C@@H](CC(C)C)C(=O)[C@@]1(C)CO1 [Carfilzomib] + CC(=O)Nc1cccc(-n2c(=O)n(C3CC3)c(=O)c3c(Nc4ccc(I)cc4F)n(C)c(=O)c(C)c32)c1 [Trametinib] (partner 0.02 µM)
How it was run: (§1)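 Lung cancer cell lines in 1536-well plates were dosed by pin tool the day after seeding, either with one drug alone or with a fixed anchor-drug dose plus five library-drug doses (not always all listed) in √10 steps. After 5 days, cells were fixed and their nuclei stained in one step (final 0.05% Triton X-100, 1% formaldehyde, 1 ug/ml Hoechst), then counted on 4× images. Relative viability is the nuclei count in treated wells divided by that in vehicle wells. Values are medians of duplicate plates.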

Carfilzomib + Vorinostat = compound: CC(C)C[C@H](NC(=O)[C@H](CCc1ccccc1)NC(=O)CN1CCOCC1)C(=O)N[C@@H](Cc1ccccc1)C(=O)N[C@@H](CC(C)C)C(=O)[C@@]1(C)CO1 [Carfilzomib] + O=C(CCCCCCC(=O)Nc1ccccc1)NO [Vorinostat] (partner 1 µM)
How it was run: as §1

Crizotinib + Tozasertib = compound: C[C@@H](Oc1cc(-c2cnn(C3CCNCC3)c2)cnc1N)c1c(Cl)ccc(F)c1Cl [Crizotinib] + Cc1cc(Nc2cc(N3CCN(C)CC3)nc(Sc3ccc(NC(=O)C4CC4)cc3)n2)n[nH]1 [Tozasertib] (partner 0.1 µM)
How it was run: as §1

Olaparib + Phenformin = compound: O=C(c1cc(Cc2n[nH]c(=O)c3ccccc23)ccc1F)N1CCN(C(=O)C2CC2)CC1 [Olaparib] + N=C(N)NC(=N)NCCc1ccccc1 [Phenformin] (partner 250 µM)
How it was run: as §1

Cell Line	relative viability (Carfilzomib + Trametinib; first compound 0.001 µM)	relative viability (Carfilzomib + Trametinib; first compound 0.003162 µM)	relative viability (Carfilzomib + Trametinib; first compound 0.01 µM)	relative viability (Carfilzomib + Trametinib; first compound 0.03162 µM)	relative viability (Carfilzomib + Trametinib; first compound 0.1 µM)	relative viability (Carfilzomib + Vorinostat; first compound 0.001 µM)	relative viability (Carfilzomib + Vorinostat; first compound 0.003162 µM)	relative viability (Carfilzomib + Vorinostat; first compound 0.01 µM)	relative viability (Carfilzomib + Vorinostat; first compound 0.03162 µM)	relative viability (Carfilzomib + Vorinostat; first compound 0.1 µM)	relative viability (Crizotinib + Tozasertib; first compound 0.01 µM)	relative viability (Crizotinib + Tozasertib; first compound 0.03162 µM)	relative viability (Crizotinib + Tozasertib; first compound 0.1 µM)	relative viability (Crizotinib + Tozasertib; first compound 0.3162 µM)	relative viability (Crizotinib + Tozasertib; first compound 1 µM)	relative viability (Olaparib + Phenformin; first compound 0.08 µM)	relative viability (Olaparib + Phenformin; first compound 0.253 µM)	relative viability (Olaparib + Phenformin; first compound 2.53 µM)	relative viability (Olaparib + Phenformin; first compound 8 µM)
LOU-NH91	0.831	0.81	0.818	0.389	0.33	1.03	1.03	0.443	0.302	0.328	0.674	0.69	0.751	0.606	0.677	0.885	0.663	0.716	0.769
EKVX	0.338	0.418	0.368		0.172	0.663	0.958	0.783	0.561	0.231	0.392	0.398	0.426	0.349	0.405	0.268	0.243	0.221	0.248
SK-LU-1	0.394	0.545	0.474	0.202	0.185	0.772	0.864	0.533	0.219	0.198	0.287	0.373	0.328	0.334	0.27	0.612	0.473	0.569	0.365
LXF-289	0.705	0.742	0.679	0.163	0.107	0.747	0.795	0.738	0.0661	0.101	0.221	0.201	0.18	0.157	0.197	0.555	0.477	0.547	0.526
NCI-H2009	0.232	0.312	0.287	0.295	0.119	0.717	0.821	0.757	0.179	0.0653	0.746	0.712	0.731	0.678	0.665	0.557	0.49	0.438	0.386
HCC-827	0.566	0.542	0.534	0.491	0.191	0.821	0.913	0.943	0.673	0.189	0.427	0.438	0.414	0.413	0.415	0.361	0.372	0.398	0.35
NCI-H3122	0.196	0.234	0.255	0.244	0.239	0.841	0.819	1.06	0.747	0.329	0.404	0.34	0.457	0.181	0.154	0.425	0.362	0.344	0.306
NCI-H2126	0.516	0.61	0.58	0.563	0.447	0.748	0.868	0.904	0.716	0.222	0.721	0.813	0.819	0.8	0.808	0.615	0.549	0.506	0.588
